Results on 18 molecules are retold here after patent US9738604B2, “Ethynylbenzene derivatives” (Duke University, priority 2010, dated 2017).

What all share (type): cell-based
One assay concerns P. aeruginosa (PAO1). In words: MIC, P. aeruginosa. To be noted: for MIC: Pseudomonas aeruginosa, read-out: MIC P. aeruginosa (PAO1).
A further assay deals with E. coli W3110RL. Description: microbe, parasite or virus in culture. To be noted: for MIC E. coli W3110RL: E. coli with lpxC of R. leguminosarum, 22 hours at 37° C., MTT; for MIC: Escherichia coli, W3110RL, 22 h, read-out: MIC E. coli W3110RL.
Another assay has as its system E. coli W3110PA. In words: microbe, parasite or virus in culture. To be noted: for MIC E. coli W3110PA: E. coli with lpxC of P. aeruginosa, 22 hours at 37° C., MTT; for MIC: Escherichia coli, W3110PA, 22 h, read-out: MIC E. coli W3110PA.
Another assay deals with E. coli W3110. In words: microbe, parasite or virus in culture. To be noted: for MIC: Escherichia coli, W3110, 22 h, read-out: MIC E. coli W3110.
Setting [1] is: P. aeruginosa PAO1, 22 hours at 37° C., MTT.

SMILES strings stand for the structures. Converted amounts (≈) assume the structure as drawn. Read-outs that look alike come from different tables or passages of the source. A value given as a limit tells only on which side of the number the result lay.

With `Nc1ccc(C#CC#Cc2ccc(C(=O)N[C@@H](Cc3ccccc3)C(=O)NO)cc2)cc1` [CPD-025, (2S)-2-({4′-[4′-(4′-aminophenyl)buta-1′,3′-diyn-1′-yl]phenyl}formamido)-N-hydroxy-3-phenylpropanamide], the “MIC P. aeruginosa (PAO1)” value in the assay with P. aeruginosa (PAO1) (setting [1]) was “D (51-100 μg/mL)”. In addition, in the assay with E. coli W3110RL, the “MIC E. coli W3110RL” value is recorded as “E (>100 μg/mL)”. Also, in the assay with E. coli W3110PA, the “MIC E. coli W3110PA” value is “E (>100 μg/mL)”. Also, the “MIC E. coli W3110” value in the assay on E. coli W3110 was “B (key: A: <1 μg/mL; B: 1-10 μg/mL; C: 11-50 μg/mL; D: 51-100 μg/mL; E: >100 μg/mL)”.
As for `C[C@@H](O)[C@H](NC(=O)c1ccc(C#CC#Cc2ccc(N)cc2)cn1)C(=O)NO` [CPD-041, (2S,3R)-2-({5-[4-(4-aminophenyl)buta-1,3-diyn-1-yl]pyridin-2-yl}formamido)-N,3-dihydroxybutanamide], the MIC in the assay with P. aeruginosa (PAO1) (PAO1, 22 h) is 1 to 10 µg/mL (≈ 2.64 to 26.4 µM); in the assay on E. coli W3110RL it was 11 to 50 µg/mL (≈ 29.1 to 132 µM); with E. coli W3110PA it was 1 to 10 µg/mL (≈ 2.64 to 26.4 µM); with E. coli W3110 it was under 1 µg/mL.
In the case of `C[C@@H](O)[C@H](NC(=O)c1ccc(C#Cc2ccccc2)cc1)C(=O)NO`, the MIC with P. aeruginosa (PAO1) (setting [1]) was 1 to 10 µg/mL (≈ 2.96 to 29.6 µM); in the assay on E. coli W3110RL, over 100 µg/mL; with E. coli W3110PA, under 1 µg/mL; in the assay on E. coli W3110 it was under 1 µg/mL.
`Nc1ccc(C#CC#Cc2ccc(C(=O)N[C@H](C(=O)NO)[C@H](O)c3ccc(O)cc3)cc2)cc1` [CPD-049, 4-((4-aminophenyl)buta-1,3-diynyl)-N-((1R,2S)-1-hydroxy-3-(hydroxyamino)-1-(4-hydroxyphenyl)-3-oxopropan-2-yl)benzamide]: the MIC in the assay on P. aeruginosa (PAO1) (PAO1, 22 h) lay in the range of 11 to 50 µg/mL (≈ 24.2 to 110 µM); with E. coli W3110RL, 51 to 100 µg/mL (≈ 112 to 220 µM); with E. coli W3110PA it was 51 to 100 µg/mL (≈ 112 to 220 µM); in the assay with E. coli W3110 it was 1 to 10 µg/mL (≈ 2.2 to 22 µM).
With `Nc1ccc(C#CC#Cc2ccc(C(=O)N[C@@H](CC(=O)O)C(=O)NO)cc2)cc1` [CPD-019, (3S)-3-({4′-[4′-(4′-aminophenyl)buta-1′,3′-diyn-1′-yl]phenyl}formamido)-3-(hydroxycarbamoyl)propane acid], the “MIC P. aeruginosa (PAO1)” value in the assay with P. aeruginosa (PAO1) (setting [1]) was “E (>100 μg/mL)”. The “MIC E. coli W3110RL” value with E. coli W3110RL was “E (>100 μg/mL)”. For the same molecule, in the assay with E. coli W3110PA, the “MIC E. coli W3110PA” value was “E (>100 μg/mL)”. In addition, in the assay on E. coli W3110, the “MIC E. coli W3110” value is listed as “D (key: A: <1 μg/mL; B: 1-10 μg/mL; C: 11-50 μg/mL; D: 51-100 μg/mL; E: >100 μg/mL)”.
As to `O=C(NO)C(Cc1ccc2ccccc2c1)NS(=O)(=O)c1ccc2ccccc2c1` (stereo not drawn), the MIC in the assay with P. aeruginosa (PAO1) (setting [1]) was over 100 µg/mL; in the assay with E. coli W3110RL, over 100 µg/mL; in the assay on E. coli W3110PA, over 100 µg/mL; in the assay on E. coli W3110 it was 1 to 10 µg/mL (≈ 2.38 to 23.8 µM).
Take `C[C@](O)(c1ccc(CO)cc1)[C@H](NC(=O)c1ccc(C#CC#Cc2ccc(N)cc2)cc1)C(=O)NO` [CPD-062, 4-((4-aminophenyl)buta-1,3-diynyl)-N-((2S,3S)-3-hydroxy-1-(hydroxyamino)-3-(4-(hydroxymethyl)phenyl)-1-oxobutan-2-yl)benzamide]: the MIC in the assay with P. aeruginosa (PAO1) (PAO1, 22 h) is 1 to 10 µg/mL (≈ 2.07 to 20.7 µM); with E. coli W3110RL, 51 to 100 µg/mL (≈ 105 to 207 µM); with E. coli W3110PA, under 1 µg/mL; in the assay with E. coli W3110 it was under 1 µg/mL.
With `NC[C@H](NC(=O)c1ccc(C#CC#Cc2ccc(N)cc2)cc1)C(=O)NO` [CPD-021, (2S)-3-amino-2-({4′-[4′-(4′-aminophenyl)buta-1′,3′-diyn-1-yl]phenyl}formamido)-N-hydroxypropanamide], the “MIC P. aeruginosa (PAO1)” value with P. aeruginosa (PAO1) (setting [1]) is recorded as “B (1-10 μg/mL)”. Also, the “MIC E. coli W3110RL” value in the assay on E. coli W3110RL is “E (>100 μg/mL)”. Further, the “MIC E. coli W3110PA” value in the assay on E. coli W3110PA was “C (11-50 μg/mL)”. Besides, the “MIC E. coli W3110” value against E. coli W3110 is reported as “B (key: A: <1 μg/mL; B: 1-10 μg/mL; C: 11-50 μg/mL; D: 51-100 μg/mL; E: >100 μg/mL)”.
For `C[C@@H](O)[C@H](NC(=O)c1ccc(C#CCOc2ccc(N)cc2)cc1)C(=O)NO` [CPD-059, 4-(3-(4-aminophenoxy)prop-1-ynyl)-N-((2S,3R)-3-hydroxy-1-(hydroxyamino)-1-oxobutan-2-yl)benzamide], the MIC in the assay with P. aeruginosa (PAO1) (PAO1, 22 h) was 11 to 50 µg/mL (≈ 28.7 to 130 µM); in the assay on E. coli W3110RL it was 51 to 100 µg/mL (≈ 133 to 261 µM); in the assay on E. coli W3110PA, 11 to 50 µg/mL (≈ 28.7 to 130 µM); with E. coli W3110 it was 1 to 10 µg/mL (≈ 2.61 to 26.1 µM).
For `C[C@H](O)[C@H](NC(=O)c1ccc(C#CC#Cc2ccc(N)cc2)cc1)C(=O)NO` [CPD-053, (2S,3S)-2-{4′-[(4″-aminophenyl)buta-1′,3′-diynyl]benzamido}-1,3-dihydroxybutanamide], the MIC is under 1 µg/mL with P. aeruginosa (PAO1) (PAO1, 22 h); 51 to 100 µg/mL (≈ 135 to 265 µM) in the assay on E. coli W3110RL; under 1 µg/mL with E. coli W3110PA; under 1 µg/mL with E. coli W3110.
In the case of `C[C@@](N)(C(F)F)[C@H](NC(=O)c1ccc(C#Cc2ccc(CN3CCOCC3)cc2)cc1)C(=O)NO` [CPD-080, N-((2S,3S)-3-amino-4,4-difluoro-1-(hydroxyamino)-3-methyl-1-oxobutan-2-yl)-4-((4-(morpholinomethyl)phenyl)ethynyl)benzamide], the MIC in the assay on P. aeruginosa (PAO1) (PAO1, 22 h) was under 1 µg/mL; with E. coli W3110, under 1 µg/mL.
In the case of `C[C@@H](O)[C@H](NC(=O)c1ccc(C#CC#Cc2cccnc2)cc1)C(=O)NO` [CPD-038, (2S,3R)-2-{4′-[(pyridin-3″-yl]buta-1′,3′-diynyl]benzamido}-1,3-dihydroxybutanamide], in the assay with P. aeruginosa (PAO1) (setting [1]), the “MIC P. aeruginosa (PAO1)” value is “A (<1 μg/mL)”. Besides, the “MIC E. coli W3110RL” value in the assay with E. coli W3110RL is given as “D (51-100 μg/mL)”. In addition, the “MIC E. coli W3110PA” value against E. coli W3110PA is reported as “B (1-10 μg/mL)”. For the same molecule, the “MIC E. coli W3110” value with E. coli W3110 is “A (key: A: <1 μg/mL; B: 1-10 μg/mL; C: 11-50 μg/mL; D: 51-100 μg/mL; E: >100 μg/mL)”.
Turning to `Nc1ccc(C#CC#Cc2ccc(C(=O)N[C@@H](Cc3c[nH]cn3)C(=O)NO)cc2)cc1` [CPD-014, (2S)-2-({4′-[4′-(4′-aminophenyl)buta-1′,3′-diyn-1′-yl]phenyl}formamido)-N-hydroxy-3-(1′H-imidazol-4′-yl)propanamide], the “MIC P. aeruginosa (PAO1)” value in the assay on P. aeruginosa (PAO1) (setting [1]) was “B (1-10 μg/mL)”. The “MIC E. coli W3110RL” value in the assay with E. coli W3110RL was “E (>100 μg/mL)”. Besides, in the assay on E. coli W3110PA, the “MIC E. coli W3110PA” value was “B (1-10 μg/mL)”. Besides, in the assay with E. coli W3110, the “MIC E. coli W3110” value was “A (key: A: <1 μg/mL; B: 1-10 μg/mL; C: 11-50 μg/mL; D: 51-100 μg/mL; E: >100 μg/mL)”.
`C[C@@](O)(C(F)F)[C@H](NC(=O)c1ccc(C#Cc2ccc(CN3CCOCC3)cc2)cc1)C(=O)NO` [CPD-069, N-((2S,3S)-4,4-difluoro-3-hydroxy-1-(hydroxyamino)-3-methyl-1-oxobutan-2-yl)-4-((4-(morpholinomethyl)phenyl)ethynyl)benzamide]: the MIC in the assay with P. aeruginosa (PAO1) (PAO1, 22 h) is 1 to 10 µg/mL (≈ 2.05 to 20.5 µM); with E. coli W3110 it was under 1 µg/mL.
`C[C@](O)(c1c[nH]nn1)C(NC(=O)c1ccc(C#CC#Cc2ccc(N)cc2)cc1)C(=O)NO` (stereo partly drawn) [CPD-072, 4-((4-aminophenyl)buta-1,3-diynyl)-N-((3R)-3-hydroxy-1-(hydroxyamino)-1-oxo-3-(1H-1,2,3-triazol-4-yl)butan-2-yl)benzamide]: the MIC with P. aeruginosa (PAO1) (PAO1, 22 h) is under 1 µg/mL; in the assay with E. coli W3110 it was under 1 µg/mL.
With `Nc1ccc(C#CC#Cc2ccc(C(=O)N[C@@H]3CN(O)C3=O)cc2)cc1` [CPD-071, (R)-4-((4-aminophenyl)buta-1,3-diynyl)-N-(1-hydroxy-2-oxoazetidin-3-yl)benzamide], the MIC is 51 to 100 µg/mL (≈ 148 to 290 µM) in the assay on P. aeruginosa (PAO1) (PAO1, 22 h) and 1 to 10 µg/mL (≈ 2.9 to 29 µM) with E. coli W3110.
With `CCCc1cc(C2=N[C@@H](C(=O)NO)CO2)cc(OC)c1OC`, the MIC in the assay on E. coli W3110RL and with E. coli W3110PA was over 100 µg/mL in each case.
For the molecule `C[C@@](N)(C(F)F)C(NC(=O)c1ccc(C#CC#Cc2ccc(N)cc2)cc1)C(=O)NO` (stereo partly drawn) [CPD-079, N-((3S)-3-amino-4,4-difluoro-1-(hydroxyamino)-3-methyl-1-oxobutan-2-yl)-4-((4-aminophenyl)buta-1,3-diynyl)benzamide], the MIC in the assay on P. aeruginosa (PAO1) (PAO1, 22 h) was under 1 µg/mL; in the assay on E. coli W3110, under 1 µg/mL.
